In patent US10428083B2, “Heterocyclylmethyl-thienouracile as antagonists of the adenosine-A2B-receptor” (BAYER PHARMA AKTIENGESELLSCHAFT, priority 2015, dated 2019):

Target: human adenosine A2b receptor (Homo sapiens (Human), UniProt P29275)
Experiment: Cellular in vitro reporter gene test for A2b receptor activity (CHO-K1, CRE-luciferase, NECA stimulation)
Type: cell-based
Conditions: recombinant CHO-K1 cell line, CRE-luciferase reporter, antagonism of EC50 concentration of NECA; in some cases means of several determinations, rounded to two significant figures; read-out: A2b receptor IC50
How it was run: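 CHO-K1 cells with CRE-driven luciferase; antagonists co-incubated with NECA at its EC50, determined in a pre-experiment on each test day. Luciferase read by luminescence 3 h after NECA addition.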

Chain of human adenosine A2b receptor (P29275 whole entry): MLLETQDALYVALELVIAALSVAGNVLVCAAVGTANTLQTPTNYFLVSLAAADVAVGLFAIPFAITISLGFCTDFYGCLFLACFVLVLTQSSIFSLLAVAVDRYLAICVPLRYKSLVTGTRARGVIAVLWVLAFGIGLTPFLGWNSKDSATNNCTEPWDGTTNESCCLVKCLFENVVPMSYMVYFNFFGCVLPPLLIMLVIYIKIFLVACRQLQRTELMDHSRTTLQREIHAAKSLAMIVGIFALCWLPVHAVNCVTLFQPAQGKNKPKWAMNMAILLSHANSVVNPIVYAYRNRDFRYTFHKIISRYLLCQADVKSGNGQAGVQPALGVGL

| SMILES | IC50 [nM] |
| --- | --- |
| Cc1c(CN2CCNC2=NC#N)sc2c1c(=O)n(CC(F)(F)F)c(=O)n2CCC(F)(F)F [Example 358, [1-{[5-Methyl-2,4-dioxo-3-(2,2,2-trifluoroethyl)-1-(3,3,3-trifluoropropyl)-1,2,3,4-tetrahydrothieno[2,3-d]pyrimidin-6-yl]methyl}imidazolidin-2-ylidene]cyanamide] | 12 |
| CCn1c(=O)c2c(C)c(CN3CCC(C)C3=O)sc2n(CCC(F)(F)F)c1=O (racemic) [Example 6, 3-Ethyl-5-methyl-6-[(3-methyl-2-oxopyrrolidin-1-yl)methyl]-1-(3,3,3-trifluoropropyl)thieno[2,3-d]pyrimidine-2,4(1H,3H)-dione (racemate)] | 8 |
| Cc1c(CN2CCNC(=O)C2=O)sc2c1c(=O)n(C(C)C)c(=O)n2CC1CCO1 (racemic) [Example 397, 6-[(2,3-Dioxopiperazin-1-yl)methyl]-3-isopropyl-5-methyl-1-(oxetan-2-ylmethyl)thieno[2,3-d]pyrimidine-2,4(1H,3H)-dione] | 120 |
| CCn1c(=O)c2c(C)c(CN3CCNC(=O)C3=O)sc2n(CCOC2CCCC2)c1=O [Example 395, 1-[2-(Cyclopentyloxy)ethyl]-6-[(2,3-dioxopiperazin-1-yl)methyl]-3-ethyl-5-methylthieno[2,3-d]pyrimidine-2,4(1H,3H)-dione] | 94 |
| Cc1c(Cn2nc[nH]c2=O)sc2c1c(=O)n(CC(F)(F)F)c(=O)n2CCC(F)(F)F [Example 432, 5-Methyl-6-[(5-oxo-4,5-dihydro-1H-1,2,4-triazol-1-yl)methyl]-3-(2,2,2-trifluoroethyl)-1-(3,3,3-trifluoropropyl)thieno[2,3-d]pyrimidine-2,4(1H,3H)-dione] | 92 |
| CCn1c(=O)c2c(C)c(CN3CCNC3=NC#N)sc2n(CCOC)c1=O [Example 117, [1-{[3-Ethyl-1-(2-methoxyethyl)-5-methyl-2,4-dioxo-1,2,3,4-tetrahydrothieno[2,3-d]pyrimidin-6-yl]methyl}imidazolidin-2-ylidene]cyanamide] | 5.2 |
| Cc1c(CN2CCNC2=S)sc2c1c(=O)n(CC(F)F)c(=O)n2CC1CCCO1 (single isomer, unassigned) [Example 163, 3-(2,2-Difluoroethyl)-5-methyl-1-(tetrahydrofuran-2-ylmethyl)-6-[(2-thioxoimidazolidin-1-yl)methyl]thieno[2,3-d]pyrimidine-2,4(1H,3H)-dione] | 5.2 |
| CCOCCn1c(=O)n(CCOC)c(=O)c2c(C)c(CN3CCNC3=S)sc21 [Example 169, 1-(2-Ethoxyethyl)-3-(2-methoxyethyl)-5-methyl-6-[(2-thioxoimidazolidin-1-yl)methyl]thieno[2,3-d]pyrimidine-2,4(1H,3H)-dione] | 36 |
| Cc1c(CN2CCNC2=O)sc2c1c(=O)n(CC(F)F)c(=O)n2CC1CCCO1 (single isomer, unassigned) [Example 221, 3-(2,2-Difluoroethyl)-5-methyl-6-[(2-oxoimidazolidin-1-yl)methyl]-1-(tetrahydrofuran-2-ylmethyl)thieno[2,3-d]pyrimidine-2,4(1H,3H)-dione] | 29 |
| CCn1c(=O)c2c(C)c(CN3CCN(C)C3=O)sc2n(CCC(F)(F)F)c1=O [Example 103, 3-Ethyl-5-methyl-6-[(3-methyl-2-oxoimidazolidin-1-yl)methyl]-1-(3,3,3-trifluoropropyl)thieno[2,3-d]pyrimidine-2,4(1H,3H)-dione] | 3.5 |
| Cc1c(CN2CCNC2=O)sc2c1c(=O)n(CC(C)C)c(=O)n2CC1CCCO1 (single isomer, unassigned) [Example 198, 3-Isobutyl-5-methyl-6-[(2-oxoimidazolidin-1-yl)methyl]-1-(tetrahydrofuran-2-ylmethyl)thieno[2,3-d]pyrimidine-2,4(1H,3H)-dione] | 8.9 |
| Cc1c(CN2CCNC(=O)C2=O)sc2c1c(=O)n(CC(F)(F)F)c(=O)n2CC1CCCO1 (racemic) [Example 487, 6-[(2,3-Dioxopiperazin-1-yl)methyl]-5-methyl-1-(tetrahydrofuran-2-ylmethyl)-3-(2,2,2-trifluoroethyl)thieno[2,3-d]pyrimidine-2,4(1H,3H)-dione] | 250 |
| CCC(C)n1c(=O)c2c(C)c(CN3CCNC3=O)sc2n(CCOC)c1=O (racemic) [Example 190, 3-sec-Butyl-1-(2-methoxyethyl)-5-methyl-6-[(2-oxoimidazolidin-1-yl)methyl]thieno[2,3-d]pyrimidine-2,4(1H,3H)-dione] | 38 |
| CCn1c(=O)c2c(C)c(CN3C(=O)CNC3=O)sc2n(CCOC(F)(F)F)c1=O [Example 106, 6-[(2,5-Dioxoimidazolidin-1-yl)methyl]-3-ethyl-5-methyl-1-[2-(trifluoromethoxy)ethyl]thieno[2,3-d]pyrimidine-2,4(1H,3H)-dione] | 9.2 |
| COC(C)Cn1c(=O)c2c(C)c(CN3CCNC(=O)C3=O)sc2n(CCC(F)(F)F)c1=O (racemic) [Example 493, 6-[(2,3-Dioxopiperazin-1-yl)methyl]-3-(2-methoxypropyl)-5-methyl-1-(3,3,3-trifluoropropyl)thieno[2,3-d]pyrimidine-2,4(1H,3H)-dione] | 11 |
| CCn1c(=O)c2c(C)c(CN3CCNC3=O)sc2n(CC2CCC2)c1=O [Example 80, 1-(Cyclobutylmethyl)-3-ethyl-5-methyl-6-[(2-oxoimidazolidin-1-yl)methyl]thieno[2,3-d]pyrimidine-2,4(1H,3H)-dione] | 1.4 |
| COCCn1c(=O)n(CC2COC2)c(=O)c2c(C)c(CN3CCNC3=O)sc21 [Example 335, 1-(2-Methoxyethyl)-5-methyl-3-(oxetan-3-ylmethyl)-6-[(2-oxoimidazolidin-1-yl)methyl]thieno[2,3-d]pyrimidine-2,4(1H,3H)-dione] | 270 |
| CCn1c(=O)c2c(C)c(CN3CCN(C(=O)OC(C)(C)C)S3(=O)=O)sc2n(CCC(F)(F)F)c1=O [Example 26, tert-Butyl 5-{[3-ethyl-5-methyl-2,4-dioxo-1-(3,3,3-trifluoropropyl)-1,2,3,4-tetrahydrothieno[2,3-d]pyrimidin-6-yl]methyl}-1,2,5-thiadiazolidine-2-carboxylate 1,1-dioxide] | 11 |
| Cc1c(CN2CCNC2=O)sc2c1c(=O)n(CC(F)F)c(=O)n2CCCF [Example 95, 3-(2,2-Difluoroethyl)-1-(3-fluoropropyl)-5-methyl-6-[(2-oxoimidazolidin-1-yl)methyl]thieno[2,3-d]pyrimidine-2,4(1H,3H)-dione] | 11 |
| COC(C)(C)Cn1c(=O)c2c(C)c(CN3CCNC(=O)C3=O)sc2n(CCCF)c1=O [Example 280, 6-[(2,3-Dioxopiperazin-1-yl)methyl]-1-(3-fluoropropyl)-3-(2-methoxy-2-methylpropyl)-5-methylthieno[2,3-d]pyrimidine-2,4(1H,3H)-dione] | 82 |
| Cc1c(Cn2[nH]ccc2=O)sc2c1c(=O)n(C(C)C)c(=O)n2CC1CCCO1 (single isomer, unassigned) [Example 136, 3-Isopropyl-5-methyl-6-[(5-oxo-2,5-dihydro-1H-pyrazol-1-yl)methyl]-1-(tetrahydrofuran-2-ylmethyl)thieno[2,3-d]pyrimidine-2,4(1H,3H)-dione] | 360 |
| CCOCCn1c(=O)n(CC(C)C)c(=O)c2c(C)c(CN3CCNC3=O)sc21 [Example 193, 1-(2-Ethoxyethyl)-3-isobutyl-5-methyl-6-[(2-oxoimidazolidin-1-yl)methyl]thieno[2,3-d]pyrimidine-2,4(1H,3H)-dione] | 25 |
